Source: patent US20060223782A1, “2-Methylene-19-nor-(23S)-25-dehydro-1alpha-hydroxyvitamin D3-26,23-lactone and 2-methylene-19-nor-(23R)-25-dehydro-1alpha-hydroxyvitamin D3-26,23-lactone” (Wisconsin Alumni Research Foundation, priority 2005, published 2006)

Tests used:
[1] = target: T1, full-length recombinant rat vitamin D receptor (Rattus norvegicus, UniProt P13053); experiment: Vitamin D receptor competitive binding with [3H]-1,25-(OH)2-D3; details: competition with [3H]-1,25-(OH)2-D3; FIG. 1
T1 construct: Full-length recombinant rat vitamin D receptor was expressed in E. coli; histidine tag (C); made in house; host or cells: E. coli BL21(DE3) Codon Plus RIL
T1 sequence (P13053 1-423): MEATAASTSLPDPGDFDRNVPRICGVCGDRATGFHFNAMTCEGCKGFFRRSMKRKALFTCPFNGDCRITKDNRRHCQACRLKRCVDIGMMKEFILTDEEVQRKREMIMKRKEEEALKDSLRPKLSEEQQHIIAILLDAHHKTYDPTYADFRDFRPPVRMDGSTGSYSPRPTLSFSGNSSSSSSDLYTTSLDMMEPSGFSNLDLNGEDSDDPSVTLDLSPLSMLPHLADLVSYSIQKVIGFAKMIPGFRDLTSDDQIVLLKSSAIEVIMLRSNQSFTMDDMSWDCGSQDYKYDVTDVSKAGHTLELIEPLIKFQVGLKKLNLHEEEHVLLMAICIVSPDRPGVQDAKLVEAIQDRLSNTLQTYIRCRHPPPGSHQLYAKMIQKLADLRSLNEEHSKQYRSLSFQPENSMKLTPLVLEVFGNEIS
Protocol: The first system was a nickel affinity resin that utilizes the C-terminal histidine tag on this protein. The protein that was eluted from this resin was further purified using ion exchange chromatography (S-Sepharose Fast Flow). Aliquots of the purified protein were quick frozen in liquid nitrogen and stored at −80° C. until use. For use in binding assays, the protein was diluted in TEDK50 (50 mM Tris, 1.5 mM EDTA, pH 7.4, 5 mM DTT, 150 mM KCl) with 0.1% Chaps detergent. The receptor protein and ligand concentration was optimized such that no more than 20% of the added radiolabeled ligand was bound to the receptor.
Radiolabeled and unlabeled ligands were added to 100 mcl of the diluted protein at a final ethanol concentration of ≦10%, mixed and incubated overnight on ice to reach binding equilibrium. The following day, 100 mcl of hydroxylapatite slurry (50%) was added to each tube and mixed at 10-minute intervals for 30 minutes. The hydroxylapaptite was collected by centrifugation and then washed three times with Tris-EDTA buffer (50 mM Tris, 1.5 mM EDTA, pH 7.4) containing 0.5% Titron X-100. After the final wash, the pellets were transferred to scintillation vials containing 4 mL of Biosafe II scintillation cocktail, mixed and placed in a scintillation counter. Total binding was determined from the tubes containing only radiolabeled ligand.

HL-60 cells = experiment: HL-60 differentiation (nitro blue tetrazolium reduction); format: cell-based, human; details: FIG. 2
Protocol: The study drugs were dissolved in ethanol and the concentrations determined using UV spectrophotometry. Serial dilutions were prepared so that a range of drug concentrations could be tested without changing the final concentration of ethanol (≦0.2%) present in the cell cultures.
Human promyelocyiic leukemia (HL60) cells were grown in RPMI-1640 medium containing 10% fetal bovine serum. The cells were incubated at 37° C. in the presence of 5% CO2.
HL60 cells were plated at 1.2×10^5 cells/mL. Eighteen hours after plating, cells in duplicate were treated with drug. Four days later, the cells were harvested and a nitro blue tetrazolium reduction assay was performed (Collins et al., 1979; J. Exp. Med. 149:969-974). The percentage of differentiated cells was determined by counting a total of 200 cells and recording the number that contained intracellular black-blue formazan deposits. Verification of differentiation to monocytic cells was determined by measuring phagocytic activity (data not shown).

[2] = system: 24-hydroxylase (24OHase) gene promoter in ROS 17/2.8 (bone) cells; experiment: In vitro transcription assay, antagonism of 1,25(OH)2D3 (24OHase promoter-luciferase); format: cell-based; details: combination with 1,25(OH)2D3 in the same well; FIGS. 3-5
Protocol: Transcription activity was measured in ROS 17/2.8 (bone) cells that were stably transfected with a 24-hydroxylase (24OHase) gene promoter upstream of a luciferase reporter gene (Arbour et al., 1998). Cells were given a range of doses. Sixteen hours after dosing the cells were harvested and luciferase activities were measured using a luminometer. RLU=relative luciferase units.
Antagonism was tested by adding a combination of 1,25(OH)2D3 and the compound in the same well keeping the final ethanol concentration the same.

Sprague-Dawley rats [3] = experiment: Bone calcium mobilization (serum calcium); format: in vivo, rat; details: four consecutive ip doses, even at 2,340 pmol/day, FIG. 6
Protocol: (§1) Male, weanling Sprague-Dawley rats were placed on Diet 11 (Suda et al. J. Nutr. 100:1049, 1970) (0.47% Ca) diet+vitamins AEK for one week followed by Diet 11 (0.02% Ca)+AEK for 3 weeks. The rats were then switched to a diet containing 0.47% Ca for one week followed by two weeks on a diet containing 0.02% Ca. Dose administration began during the last week on 0.02% calcium diet. Four consecutive ip doses were given approximately 24 hours apart. Twenty-four hours after the last dose, blood was collected from the severed neck and the concentration of serum calcium determined as a measure of bone calcium mobilization. The first 10 cm of the intestine was also collected for intestinal calcium transport analysis using the everted gut sac method. Antagonism was tested by administering a combination of 1,25(OH)2D3 and the compound to the animal simultaneously.

Sprague-Dawley rats [4] = experiment: Intestinal calcium transport (everted gut sac method); format: in vivo, rat; details: four consecutive ip doses, FIG. 7
Protocol: as §1

SMILES	binding to the vitamin D receptor relative to 1α,25-dihydroxyvitamin D3 [1]	activity in inducing differentiation of HL-60 cells relative to 1,25-(OH)2D3 (HL-60 cells)	antagonistic activity when administered along with 1α,25-dihydroxyvitamin D3 (transcription) [2]	calcemic activity measured by bone calcium mobilization (Sprague-Dawley rats [3])	intestinal calcium transport (Sprague-Dawley rats [4])
C=C1C[C@@H](C[C@@H](C)C2CC[C@H]3/C(=C/C=C4C[C@@H](O)C(=C)[C@H](O)C4)CCC[C@]23C)OC1=O (stereo partly drawn) [GC-3, 2-methylene-19-nor-(23R)-25-dehydro-1α-hydroxyvitamin D3-26,23-lactone]	less active	less activity than 1,25-(OH)2D3	shows antagonistic activity	no calcemic activity	retain the ability to elevate intestinal calcium transport
C=C1C[C@H](C[C@@H](C)C2CC[C@H]3/C(=C/C=C4C[C@@H](O)C(=C)[C@H](O)C4)CCC[C@]23C)OC1=O (stereo partly drawn) [HLV, 2-methylene-19-nor-(23S)-25-dehydro-1α-hydroxyvitamin D3-26,23-lactone]	less active	less activity than 1,25-(OH)2D3	antagonistic activity to an even greater extent	no calcemic activity	retain the ability to elevate intestinal calcium transport
